Measurements as given in PMC5951806, “Rapid labelling and covalent inhibition of intracellular native proteins using ligand-directed N-acyl-N-alkyl sulfonamide” (Nature Communications, 2018).

Key:
endogenous Hsp90 = assay: Chemical labelling of endogenous Hsp90 in SKBR3 cells (in-gel fluorescence); assay type: cell-based, human; settings: 3 h
[1] = target: T1, Monocarboxylate transporter 4 (SLC16A3) (Homo sapiens, UniProt O15427); assay: TMT LC-MSMS of 11-labelled proteins; assay type: cell-based
T1 sequence (O15427 1-465): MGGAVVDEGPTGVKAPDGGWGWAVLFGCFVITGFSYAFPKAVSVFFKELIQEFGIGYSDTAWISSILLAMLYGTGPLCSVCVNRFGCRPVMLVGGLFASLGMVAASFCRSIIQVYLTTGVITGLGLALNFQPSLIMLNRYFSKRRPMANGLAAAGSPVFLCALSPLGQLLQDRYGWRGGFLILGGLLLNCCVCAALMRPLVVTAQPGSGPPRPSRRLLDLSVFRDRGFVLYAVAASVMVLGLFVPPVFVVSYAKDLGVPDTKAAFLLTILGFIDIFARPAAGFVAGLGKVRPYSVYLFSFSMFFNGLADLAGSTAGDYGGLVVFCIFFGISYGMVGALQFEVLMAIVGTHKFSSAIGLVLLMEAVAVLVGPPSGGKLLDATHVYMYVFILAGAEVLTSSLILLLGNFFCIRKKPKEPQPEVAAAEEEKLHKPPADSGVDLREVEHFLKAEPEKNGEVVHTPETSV
Description: (§1) Supplement 41467_2018_4343_MOESM4_ESM.xlsx, sheet "Exp2" | column: Abundance Ratio: (11) / (11 with PU-H71); Abundance Ratio: (11) / (DMSO); Abundances (Grouped): 11; Abundances (Grouped): 11 with PU-H71

[2] = target: T2, Phosphate carrier protein, mitochondrial (SLC25A3) (Homo sapiens, UniProt Q00325); assay: TMT LC-MSMS of 11-labelled proteins; assay type: cell-based
T2 sequence (Q00325 50-362): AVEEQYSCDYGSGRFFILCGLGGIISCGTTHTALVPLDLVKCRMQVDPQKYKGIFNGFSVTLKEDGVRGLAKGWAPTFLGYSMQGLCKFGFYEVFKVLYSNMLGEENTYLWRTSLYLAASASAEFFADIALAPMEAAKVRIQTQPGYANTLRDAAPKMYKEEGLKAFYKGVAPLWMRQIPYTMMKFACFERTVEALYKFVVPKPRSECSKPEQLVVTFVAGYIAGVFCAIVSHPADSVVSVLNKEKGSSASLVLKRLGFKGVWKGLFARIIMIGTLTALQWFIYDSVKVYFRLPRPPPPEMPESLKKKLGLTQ
Description: as §1

[3] = target: Hemoglobin subunit alpha (HBA2; HBA1) (Homo sapiens, UniProt P69905); assay: TMT LC-MSMS of 11-labelled proteins; assay type: cell-based
Description: as §1

[4] = target: Isoform 2 of Glucose-6-phosphate isomerase (GPI) (Homo sapiens, UniProt P06744); assay: TMT LC-MSMS of 11-labelled proteins; assay type: cell-based
Description: as §1

Alpha-actinin-4 (ACTN4) = Alpha-actinin-4 (ACTN4) (Homo sapiens, UniProt O43707); assay: TMT LC-MSMS of 11-labelled proteins; assay type: cell-based
Description: as §1

[5] = target: Dolichyl-diphosphooligosaccharide--protein glycosyltransferase 48 kDa subunit (DDOST) (Homo sapiens, UniProt P39656); assay: TMT LC-MSMS of 11-labelled proteins; assay type: cell-based
Description: as §1

Sequence of Alpha-actinin-4 (ACTN4) (O43707 whole entry): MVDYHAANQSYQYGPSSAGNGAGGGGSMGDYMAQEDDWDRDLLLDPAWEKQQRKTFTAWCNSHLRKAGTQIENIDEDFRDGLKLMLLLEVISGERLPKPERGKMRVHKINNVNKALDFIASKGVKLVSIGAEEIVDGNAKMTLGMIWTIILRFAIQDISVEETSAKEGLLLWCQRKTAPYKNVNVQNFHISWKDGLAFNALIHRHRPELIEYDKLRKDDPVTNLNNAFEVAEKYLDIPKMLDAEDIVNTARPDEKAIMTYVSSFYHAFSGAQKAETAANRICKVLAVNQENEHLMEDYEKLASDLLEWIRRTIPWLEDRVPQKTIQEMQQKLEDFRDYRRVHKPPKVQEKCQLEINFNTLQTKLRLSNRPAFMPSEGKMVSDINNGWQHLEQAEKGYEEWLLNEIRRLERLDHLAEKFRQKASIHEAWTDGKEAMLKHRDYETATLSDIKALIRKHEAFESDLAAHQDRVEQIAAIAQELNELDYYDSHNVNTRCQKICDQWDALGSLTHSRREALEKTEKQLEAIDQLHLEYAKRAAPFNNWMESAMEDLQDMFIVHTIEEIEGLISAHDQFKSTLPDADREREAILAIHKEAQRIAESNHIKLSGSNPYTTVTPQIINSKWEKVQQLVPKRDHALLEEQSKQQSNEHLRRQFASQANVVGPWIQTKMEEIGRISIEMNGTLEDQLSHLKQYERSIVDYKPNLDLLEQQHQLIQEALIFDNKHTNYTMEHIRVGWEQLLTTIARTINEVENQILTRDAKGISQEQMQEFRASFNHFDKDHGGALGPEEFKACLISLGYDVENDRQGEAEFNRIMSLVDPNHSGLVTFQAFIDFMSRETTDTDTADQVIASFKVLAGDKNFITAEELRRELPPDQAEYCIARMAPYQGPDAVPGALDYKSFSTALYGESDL
Sequence of Hemoglobin subunit alpha (HBA2; HBA1) (P69905 2-142 limits assumed): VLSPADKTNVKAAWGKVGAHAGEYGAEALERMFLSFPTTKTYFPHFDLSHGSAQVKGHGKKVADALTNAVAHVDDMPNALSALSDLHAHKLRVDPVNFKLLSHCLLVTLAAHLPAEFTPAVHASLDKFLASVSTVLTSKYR
Sequence of Dolichyl-diphosphooligosaccharide--protein glycosyltransferase 48 kDa subunit (DDOST) (P39656 43-456): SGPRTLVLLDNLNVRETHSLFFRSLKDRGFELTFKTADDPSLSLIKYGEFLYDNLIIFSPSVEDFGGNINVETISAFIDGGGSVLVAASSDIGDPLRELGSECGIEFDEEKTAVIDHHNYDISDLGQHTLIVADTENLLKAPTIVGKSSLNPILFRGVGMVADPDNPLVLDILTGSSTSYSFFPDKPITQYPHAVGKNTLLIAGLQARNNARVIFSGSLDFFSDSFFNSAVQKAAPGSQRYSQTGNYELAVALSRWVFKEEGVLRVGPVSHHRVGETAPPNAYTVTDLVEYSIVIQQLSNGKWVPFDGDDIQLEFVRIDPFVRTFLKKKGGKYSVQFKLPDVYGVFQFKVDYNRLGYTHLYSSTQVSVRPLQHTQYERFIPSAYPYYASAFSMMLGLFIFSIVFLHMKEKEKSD
Sequence of Dolichyl-diphosphooligosaccharide--protein glycosyltransferase 48 kDa subunit (DDOST) (P04843 24-607 partner): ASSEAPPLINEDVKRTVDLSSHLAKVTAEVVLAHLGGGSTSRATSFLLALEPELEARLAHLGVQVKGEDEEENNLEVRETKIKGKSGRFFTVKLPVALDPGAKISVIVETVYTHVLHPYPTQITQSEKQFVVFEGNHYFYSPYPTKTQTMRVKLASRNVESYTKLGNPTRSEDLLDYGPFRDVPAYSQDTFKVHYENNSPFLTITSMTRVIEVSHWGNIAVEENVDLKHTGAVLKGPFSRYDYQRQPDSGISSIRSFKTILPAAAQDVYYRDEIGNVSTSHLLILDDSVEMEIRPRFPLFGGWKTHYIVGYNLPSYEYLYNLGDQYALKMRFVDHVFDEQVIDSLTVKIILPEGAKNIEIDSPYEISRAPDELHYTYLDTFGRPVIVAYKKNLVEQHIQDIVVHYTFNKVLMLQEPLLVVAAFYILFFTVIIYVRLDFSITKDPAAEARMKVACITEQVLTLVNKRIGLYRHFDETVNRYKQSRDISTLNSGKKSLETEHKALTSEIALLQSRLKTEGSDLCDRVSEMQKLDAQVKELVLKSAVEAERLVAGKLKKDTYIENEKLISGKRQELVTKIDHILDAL
Sequence of Dolichyl-diphosphooligosaccharide--protein glycosyltransferase 48 kDa subunit (DDOST) (P04844 23-631 partner): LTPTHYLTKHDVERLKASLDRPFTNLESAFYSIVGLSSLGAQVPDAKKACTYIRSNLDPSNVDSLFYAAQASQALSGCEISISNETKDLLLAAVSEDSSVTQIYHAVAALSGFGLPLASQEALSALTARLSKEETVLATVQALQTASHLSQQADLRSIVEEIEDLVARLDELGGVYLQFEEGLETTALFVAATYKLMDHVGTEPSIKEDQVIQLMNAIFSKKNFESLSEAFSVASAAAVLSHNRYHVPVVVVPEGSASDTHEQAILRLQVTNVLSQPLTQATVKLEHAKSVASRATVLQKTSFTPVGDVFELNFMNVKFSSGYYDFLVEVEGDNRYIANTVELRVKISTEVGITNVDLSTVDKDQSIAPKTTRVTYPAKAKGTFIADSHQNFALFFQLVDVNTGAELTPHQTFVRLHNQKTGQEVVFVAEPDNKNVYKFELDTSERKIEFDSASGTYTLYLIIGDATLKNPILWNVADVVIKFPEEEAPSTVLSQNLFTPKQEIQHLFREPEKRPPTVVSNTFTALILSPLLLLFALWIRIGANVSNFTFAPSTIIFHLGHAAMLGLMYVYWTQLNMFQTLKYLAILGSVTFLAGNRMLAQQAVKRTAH
Sequence of Dolichyl-diphosphooligosaccharide--protein glycosyltransferase 48 kDa subunit (DDOST) (P61803 whole entry partner): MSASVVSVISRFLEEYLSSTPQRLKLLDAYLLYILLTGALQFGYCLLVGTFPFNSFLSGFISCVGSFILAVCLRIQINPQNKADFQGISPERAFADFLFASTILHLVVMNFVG
Sequence of Dolichyl-diphosphooligosaccharide--protein glycosyltransferase 48 kDa subunit (DDOST) (P61165 whole entry partner): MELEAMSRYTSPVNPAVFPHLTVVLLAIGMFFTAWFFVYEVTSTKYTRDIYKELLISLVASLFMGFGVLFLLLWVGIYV
Sequence of Dolichyl-diphosphooligosaccharide--protein glycosyltransferase 48 kDa subunit (DDOST) (P0C6T2 whole entry partner): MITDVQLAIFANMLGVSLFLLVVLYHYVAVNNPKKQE

CC(=O)Oc1ccc2c(c1)Oc1cc(OC(C)=O)ccc1C21OC(=O)c2cc(C(=O)NCCOCCOCCNC(=O)CCCC(=O)N(CC#N)S(=O)(=O)c3ccc(C(=O)NCCCn4c(Sc5cc6c(cc5I)OCO6)nc5c(N)ncnc54)cc3)ccc21 [compound 11]
unspecific reaction at high concentrations (endogenous Hsp90; 1–10 µM, 37 °C): No increase in unspecific | endogenous Hsp90 labelling (endogenous Hsp90; up to ~10 µM): labelled endogenous Hsp90 (both α and β isoforms) | Abundance Ratio: (11) / (11 with PU-H71) ([1]; sheet Exp2): 0.892 | Abundance Ratio: (11) / (DMSO) ([1]; sheet Exp2): 8.305 | Abundances (Grouped): 11 ([1]; sheet Exp2): 225.9 | Abundances (Grouped): 11 with PU-H71 ([1]; sheet Exp2, with PU-H71): 253.2 | Abundance Ratio: (11) / (11 with PU-H71) ([2]; sheet Exp2): 0.7 | Abundance Ratio: (11) / (DMSO) ([2]; sheet Exp2): 2.264 | Abundances (Grouped): 11 ([2]; sheet Exp2): 124.5 | Abundances (Grouped): 11 with PU-H71 ([2]; sheet Exp2, with PU-H71): 177.9 | Abundance Ratio: (11) / (11 with PU-H71) ([3]; sheet Exp2): 0.752 | Abundance Ratio: (11) / (DMSO) ([3]; sheet Exp2): 2.578 | Abundances (Grouped): 11 ([3]; sheet Exp2): 76.3 | Abundances (Grouped): 11 with PU-H71 ([3]; sheet Exp2, with PU-H71): 101.4 | Abundance Ratio: (11) / (11 with PU-H71) ([4]; sheet Exp2): 0.768 | Abundance Ratio: (11) / (DMSO) ([4]; sheet Exp2): 2.545 | Abundances (Grouped): 11 ([4]; sheet Exp2): 34.1 | Abundances (Grouped): 11 with PU-H71 ([4]; sheet Exp2, with PU-H71): 44.4 | Abundance Ratio: (11) / (11 with PU-H71) (Alpha-actinin-4 (ACTN4); sheet Exp2): 0.876 | Abundance Ratio: (11) / (DMSO) (Alpha-actinin-4 (ACTN4); sheet Exp2): 1.667 | Abundances (Grouped): 11 (Alpha-actinin-4 (ACTN4); sheet Exp2): 24 | Abundances (Grouped): 11 with PU-H71 (Alpha-actinin-4 (ACTN4); sheet Exp2, with PU-H71): 27.4 | Abundance Ratio: (11) / (11 with PU-H71) ([5]; sheet Exp2): 0.942 | Abundance Ratio: (11) / (DMSO) ([5]; sheet Exp2): 2.044 | Abundances (Grouped): 11 ([5]; sheet Exp2): 37.4 | Abundances (Grouped): 11 with PU-H71 ([5]; sheet Exp2, with PU-H71): 39.7
